In patent publication US10196389B2, “One class of pyrazolone compounds and use thereof” (SHANGHAI INSTITUTE OF MATERIA MEDICA, CHINESE ACADEMY OF …, priority 2014, dated 2019):

How the values were obtained:
human AMPK (α2β1γ1) = biological target: T1, human AMPK (α2β1γ1) (Homo sapiens, UniProt P54619+P54646+Q9Y478); test: AMPK (α2β1γ1) activation at molecular level, HTRF KinEASE-STK S1 kinase assay; type: biochemical
T1 construct: made in house; host or cells: E. coli
Method: 1. Purpose of the experiment: To screen small molecule compounds that can activate AMPK (α2β1γ1).
2. Principle of the experiment: The peptide as substrate contains sites which can be AMPK phosphorylated. One terminal of the peptide is linked with biotin in the reaction system (containing 2 mM MgCl2, 400 μM DTT, 160 nM substrate peptide, 4 μM ATP and 1.6 nM AMPK). In the biotinylated terminal, biotin can link with streptavidin-XL665 (acceptor) so as to complete the labeling. After 45 minute of phosphorylation reaction, the phosphorylated substrate (i.e., product) can bind to an antibody (labeled Donor) which recognizes the phosphorylating site, and the biotin on the other terminal can linked to streptavidin-XL665 (acceptor) so that the resulting FRET signal can be detected with PE Evision. The final AMPK activity is expressed as a ratio of the 665 nm wavelength reading to the 615 nm wavelength reading (665 nm/615 nm).
3. Detection reagent: The human AMPK (α2β1γ1) protein was obtained by expression using an E. coli expression system and purification. HTRF KinEASE-STK S1 kit (purchased from Cisbio's); ATP (purchased from Sigma).
1) 200 nM AMPK (α2β1γ1) protein was incubated with 200 nM CaMKKβ at 30° C. for 4 hours in water bath to completely phosphorylate AMPK.
2) The enzyme reaction system (2 mM MgCl2, […], 160 nM substrate peptide, 4 µM ATP, and 1.6 nM AMPK) was prepared by using a white shallow plate purchased from PE. The reaction was reacted at 30° C. for 45 minutes. Phosphorylated recognizing peptides of the antibody and the XL665 Detection buffer were added and the mixture was incubated at room temperature for 3 hours before the signals were detected.

[1] = system: AMPK and ACC phosphorylation on L6 myotubes; test: AMPK and ACC phosphorylation on L6 myotubes (western blot); type: cell-based; details: L6 muscle cells treated for 1 hour, FIGS. 2A and 2B
Method: (§1) 2. Experimental principle: Small molecule compounds allosterically activate AMPK and cause the phosphorylation of substrate acetyl-CoA carboxylase (ACC) at Ser-79-site.
(§2) 3. Detection reagents: AMPK, phospho-AMPK (T172), phospho-ACC (S79), and total ACC antibodies were purchased from Cell Signaling Technology.
(§3) 1) The cells were exchanged into serum-free medium and starved for two hours, and compounds were added to treat (in 0.4% DMSO) for 1 hour. The cells to be harvested were washed with PBS once. 1×SDS gel loading buffer (50 mM Tris (pH6.8), 100 mM DTT, 2% SDS, 10% glycerol, 0.1% bromophenol blue) was added to lysis cells (24 well plates, […] per well).
(§4) 2) The sample was heated at 100° C. for 10 minutes and then centrifuged at 12000 g for 10 minutes. The supernatant was subjected to SDS-PAGE electrophoresis under following condition: spacer gel: 70 volts, and separation gel: 90 volts.
(§5) 3) After electrophoresis, the proteins were transferred onto nitrocellulose membrane using Biorad wet electrical transduction system. After the desired band was cut, the strips were blocked in a blocking solution (TBST, containing 5% BSA) for 1 hour at room temperature. The strips were place in a solution containing the primary antibody and incubated overnight at 4° C.
(§6) 4) On next day, the target band was placed in TBST and washed at room temperature for 10 minutes (3 times). […]

[2] = system: AMPK and ACC phosphorylation on HepG2 cells; test: AMPK and ACC phosphorylation on HepG2 cells (western blot); type: cell-based; details: different concentrations, FIG. 3
Method: as §1, §2, §3, §4, §5, §6

[3] = system: AMPK and ACC phosphorylation on SD rat primary hepatocytes; test: AMPK and ACC phosphorylation on SD rat primary hepatocytes (western blot); type: cell-based; details: primary hepatocytes of SD rats, different concentrations, FIG. 4
Method: as §1, §2, §3, §4, §5, §6

[4] = activation of human AMPK (α2β1γ1), 4 μM ATP, 45 min at 30° C.

T1 sequence (P54646 whole entry): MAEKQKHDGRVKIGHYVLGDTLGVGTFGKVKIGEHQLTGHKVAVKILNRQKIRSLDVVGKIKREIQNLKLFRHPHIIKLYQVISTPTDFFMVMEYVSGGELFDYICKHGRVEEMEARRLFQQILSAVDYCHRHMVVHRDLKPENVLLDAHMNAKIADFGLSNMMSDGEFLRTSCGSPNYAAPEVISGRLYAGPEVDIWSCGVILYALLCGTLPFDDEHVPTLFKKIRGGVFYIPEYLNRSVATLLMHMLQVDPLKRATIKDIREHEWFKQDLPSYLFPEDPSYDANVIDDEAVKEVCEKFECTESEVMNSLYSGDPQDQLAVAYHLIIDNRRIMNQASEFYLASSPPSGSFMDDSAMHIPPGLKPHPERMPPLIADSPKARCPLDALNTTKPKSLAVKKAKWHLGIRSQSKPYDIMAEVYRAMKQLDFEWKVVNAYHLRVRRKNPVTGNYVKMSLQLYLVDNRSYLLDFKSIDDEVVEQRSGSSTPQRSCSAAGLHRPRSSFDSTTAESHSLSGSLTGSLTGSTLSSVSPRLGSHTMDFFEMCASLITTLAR
T1 sequence (Q9Y478 whole entry): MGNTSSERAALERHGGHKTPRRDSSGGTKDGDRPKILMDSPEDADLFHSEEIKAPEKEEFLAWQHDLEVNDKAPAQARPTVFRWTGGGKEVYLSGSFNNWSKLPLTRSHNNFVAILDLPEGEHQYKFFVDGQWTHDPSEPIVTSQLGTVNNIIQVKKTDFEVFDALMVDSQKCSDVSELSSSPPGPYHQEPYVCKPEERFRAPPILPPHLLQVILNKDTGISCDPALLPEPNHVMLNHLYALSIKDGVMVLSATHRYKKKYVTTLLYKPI
T1 sequence (P54619 whole entry): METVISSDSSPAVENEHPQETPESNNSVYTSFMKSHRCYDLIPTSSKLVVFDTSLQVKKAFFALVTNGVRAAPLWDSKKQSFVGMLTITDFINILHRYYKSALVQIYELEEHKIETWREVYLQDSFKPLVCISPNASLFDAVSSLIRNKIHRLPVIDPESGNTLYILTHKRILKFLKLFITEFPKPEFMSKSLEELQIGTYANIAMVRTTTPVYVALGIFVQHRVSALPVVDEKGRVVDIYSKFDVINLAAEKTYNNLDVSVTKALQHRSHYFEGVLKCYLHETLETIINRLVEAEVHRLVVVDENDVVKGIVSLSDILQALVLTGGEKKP

COc1ccc(CNC(=O)c2ccc(CN3C=C4C(=O)N(c5ccc(F)c(C(F)(F)F)c5)N=C4CC3)cc2)cc1OC [ZM-1]
allosteric activation of AMPK in molecular level (human AMPK (α2β1γ1); Table 1 and FIG. 1): significantly and allosterically activate AMPK | Activation ratio (Fold) (human AMPK (α2β1γ1); [4]): 3.3 Fold | EC50 (human AMPK (α2β1γ1); [4]): 2100 nM | AMPK activation at the cellular level [1]: dose-dependently activated | downstream phosphorylation levels of ACC [1]: increased accordingly | AMPK activation [2]: activate AMPK | phosphorylation of ACC [2]: upregulate phosphorylation of ACC in a concentration or gradient dependent manner | AMPK activation [3]: activate AMPK | phosphorylation of ACC [3]: upregulate phosphorylation of ACC in a concentration or gradient dependent manner
